How the values were obtained:
[1] = system: severe menopausal hot flashes; assay: Self-reported hot flashes pre and post stellate ganglion block in women with severe menopausal hot flashes; assay type: in vivo
Text: A stellate ganglion block is illustratively performed by placing the patient in the supine position (on the back) with the neck slightly extended and the jaw open. While the patient is usually conscious for the procedure, a medication such as Versed (midazolam hydrochloride), fentanyl, or other sedative is often administered, to relax the patient. A local anesthetic is also usually administered, to numb the skin and tissue down to the ganglion nerve. A needle is inserted toward the stellate ganglion. […] The needle 20 is shown inserted adjacent to the stellate ganglion 10. In the illustrative block, a contrast solution is injected through needle 20 via syringe 22, and the needle position is confirmed by fluoroscopy or other means, as are known in the art.
The anesthetic 30 is then delivered next to stellate ganglion 10 by injection via needle 20. Illustratively, 5 cc 0.375% Marcaine® (bupivacaine) may be used. However, it is understood that other anesthetics, illustratively lidocaine, morphine or other opioids, clonidine, botox, or tetracine, or a combination of anesthetic and epinephrine, may be used and that the dosage range may vary depending on the particular anesthetic and other factors, as are known in the art. Needle 20 is removed, and the patient is optionally placed in the sitting position to facilitate the spread of anesthesia inferiorly to the stellate ganglion. Illustratively, longer acting anesthetics such as bupivacaine are used, but other anesthetics may be used, as are known in the art. The stellate ganglion block may also be performed by radiofrequency lesioning, as is known in the art.
Six women suffering from severe menopausal hot flashes each received a standard stellate ganglion block (0.375% Marcaine, 5 cc), as described above. Hot flashes were assessed by self-reporting pre and post stellate ganglion block.

[2] = system: sexual dysfunction, including anorgasmia; assay: Sexual function after stellate ganglion block in a person with sexual dysfunction including anorgasmia; assay type: in vivo

CCCCN1CCCCC1C(=O)Nc1c(C)cccc1C (stereo not drawn) [Marcaine, bupivacaine]
success of initial stellate ganglion block, as evidenced by a positive Homer's syndrome and anhydrosis ([1]; 0.375% Marcaine, 5 cc, six women, initial block): successful in all six subjects
duration of complete alleviation of hot flashes ([1]; initial stellate ganglion block, 0.375% Marcaine, 5 cc, six women): 2-5 weeks
additional asymptomatic period of relief from hot flashes ([1]; second stellate ganglion block, after mild hot flashes returned): 4-18 weeks
sexual function with additional stellate ganglion blocks ([2]; additional blocks over the course of 3 years): maintain normal sexual function
sexual function following stellate ganglion block ([2]; person, block in accordance with Example 1): return of normal sexual function
effect on sexual dysfunction, block administered through C7 ([2]; variation in treatment: administration of the stellate ganglion block through C7): ineffective
